For experiment [1], the target named is Factor XIa (Homo sapiens, UniProt P03951). Nature of the experiment: Factor XIa inhibition assay using fluorophore-quencher pair peptide substrate. The class given is biochemical. The source says:
Biological Example 1: Factor XIa Inhibition Assay
Using Fluorophore-quencher Pair Peptide Substrate
A fluorescence intensity-based assay was used to monitor inhibition of Factor XIa. The peptide substrate, 5Fam-[…]-K5Tamra (purchased from New England Peptide) was chosen based on the […]. Conversion of zymogen FIX to its activated form, FIXa, occurs by proteolytic cleavage by FXIa at two sites, Arg146 and Arg180. The custom peptide used in this assay was based on the Arg146 cleavage site. The peptide substrate was designed with a fluorophore-quencher pair, where the fluorescence is quenched until FXIa cleaves the 8-mer peptide after the Arg residue.
Factor XIa FLINT assay was used with the following 5Fam-[…]-K5Tamra assay buffer: 50 mM Tris, pH 7.5, 100 mM NaCl, 5 mM CaCl2, 0.1 mg/mL BSA, 0.03% CHAPS was used. Assay buffer was prepared by mixing all ingredients fresh. 2×5Fam-[…]-K5Tamra peptide substrate was first prepared in 100% DMSO, then diluted 10 mM to 3 mM in 100% DMSO. Assay buffer was then added directly to the 3 mM stock of substrate to prepare the 30 μM 2× working concentration (15 μM final concentration). The 2× Factor XIa stock solution was prepared by diluting 6.562 μM stock in 1× assay buffer for a 200 pM working stock solution (100 pM final concentration).
Test compound(s) were run in an 11-point, 3-fold serial dilution with a final top compound concentration of […]. Final DMSO in assay was 2% DMSO. FXIa and compound were pre-incubated for 30 minutes and substrate was then added to initiate the reaction. The assay was linear using 100 pM FXIa greater than 30 minutes. More specifically, the assay was run as follows: • 100 nL of 1 mM test compound was dispensed into a black 384-well non-binding Greiner BioOne 784900 plate for 10 μM final concentration with 1% DMSO final concentration; • 5 μL of 1× assay buffer was dispensed to column 24 (low control) and 5 μL 2× Factor XIa solution was dispensed to columns 1-23 (column 23 high control); • the plate was centrifuged with a “cover” plate at 500 rpm for 1 min • the plate was pre-incubated for 30 minutes at room temperature with plate covered; • 5 μL of 2× 5Fam-[…]-K5Tamra peptide substrate was dispensed into the entire plate, columns 1-24; • the plate was centrifuged with a cover plate at 500 rpm for 1 min; • the plate was read kinetically monitoring fluorescence intensity on the BMG PHERAStar at room temperature, using fluorescence module F1 485 mm/520 mm.
Percent inhibition (IC50) curves were generated per compound tested, and data was analyzed using a 4-parameter logistic fit using GeneData Screener. […]

Experiment [2] has as its system activated partial thromboplastin time (aPTT). Nature of the experiment: Ex vivo clotting assay (aPTT). The class given is in vivo, New Zealand White (NZW) rabbits. As to conditions: for ex vivo aPTT Onset of Clotting Time, mean: n 4, in s (unit assumed). From the text: The following coagulation reagents were purchased from Diagnostica Stago (Parsippany, NJ): Thrombin 10 (Catalog No: 00611, lot No: 251851) for thrombin time (TT), Neoplastine® Cl 5 (Catalog No: 00666, lot No: 01504) for prothrombin time (PT), C.K. Prest® 5 (Catalog No: 00597, lot No: 112768) and CaCl2 (0.025 M, Catalog No: 00367, Lot No: 254158) for activated partial thromboplastin time (aPTT). Coagulometer STA rt4 (Diagnotica Stago) was used for ex vivo clotting time analysis.
Blood samples (1 mL each) were collected in 3.2% sodium citrate (BD Biosciences, Franklin Lakes, NJ) before and after shunt set up from the femoral artery cannula and centrifuged at 2500 g for 15 minutes at 20° C. The resulting platelet poor plasma (PPP) was transferred into clean tubes and stored at −80° C. until use.
Coagulation assays were performed with PPP in a 4 channel coagulometer STA rt4 (Diagnotica Stago). For the aPTT assay, 50 μl C.K. Preset reagent was incubated with 50 μl PPP for 3 min at 37° C. in a cuvette, and coagulation was initiated by adding 50 μl 25 mM CaCl2). The onset of clotting was recorded as the coagulation time.
Statistical analysis: All the data are expressed as mean±SEM. Statistical analyses were performed using GraphPad Prism software (v8.0). Significance was defined at p<0.05 as determined by one-way ANOVA. Tukey's test was used for multiple comparisons.

Where [3] appears, read: 0.15 + 0.13 mg/kg initial + maintenance, 20 min post initial dose.
Where [4] appears, read: 0.15 + 0.13 mg/kg initial + maintenance, 60 min post initial dose.
[5] abbreviates: 0.5 + 0.43 mg/kg initial + maintenance, 20 min post initial dose.
The mark [6] stands for this setting: 0.5 + 0.43 mg/kg initial + maintenance, 60 min post initial dose.
The mark [7] stands for this setting: 1.5 + 1.3 mg/kg initial + maintenance, 20 min post initial dose.
[8] abbreviates: 1.5 + 1.3 mg/kg initial + maintenance, 60 min post initial dose.
Setting [9] is: 5.0 + 4.3 mg/kg initial + maintenance, 20 min post initial dose.
Where [10] appears, read: 5.0 + 4.3 mg/kg initial + maintenance, 60 min post initial dose.
Where [11] appears, read: 15.0 + 13.0 mg/kg initial + maintenance, 20 min post initial dose.
Where [12] appears, read: 15.0 + 13.0 mg/kg initial + maintenance, 60 min post initial dose.

Data on two molecules can be found in patent publication US12545677B2, “Compounds useful as factor XIa inhibitors” (JANSSEN PHARMACEUTICA NV, priority 2020, dated 2026).

Sequence of Factor XIa (P03951 388-625 limits assumed): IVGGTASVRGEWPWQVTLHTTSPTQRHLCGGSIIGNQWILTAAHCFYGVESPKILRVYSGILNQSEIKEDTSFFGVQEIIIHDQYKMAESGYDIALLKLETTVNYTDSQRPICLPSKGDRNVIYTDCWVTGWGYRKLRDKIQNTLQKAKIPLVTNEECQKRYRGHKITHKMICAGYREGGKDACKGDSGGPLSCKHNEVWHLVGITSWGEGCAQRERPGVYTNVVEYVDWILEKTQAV
Sequence of Factor XIa (P03951 19-387 partner limits assumed): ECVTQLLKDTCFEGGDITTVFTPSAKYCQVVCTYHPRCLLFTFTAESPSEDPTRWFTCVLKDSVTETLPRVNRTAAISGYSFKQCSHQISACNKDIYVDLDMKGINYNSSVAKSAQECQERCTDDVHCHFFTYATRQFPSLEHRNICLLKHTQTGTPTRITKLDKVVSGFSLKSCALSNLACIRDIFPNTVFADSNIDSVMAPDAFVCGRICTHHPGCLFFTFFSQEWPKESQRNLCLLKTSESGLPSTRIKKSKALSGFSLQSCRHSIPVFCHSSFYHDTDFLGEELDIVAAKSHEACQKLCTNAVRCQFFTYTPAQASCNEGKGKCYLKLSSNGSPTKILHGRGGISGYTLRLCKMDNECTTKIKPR

`O=C(O)c1nccc(-c2cnc([C@@H]3CC[C@@H]4CC(c5c(-n6cnnn6)ccc(Cl)c5F)=CC(=O)N43)[nH]2)c1F` [Compound of formula (II-A), 4-(2-((3S,8aR)-7-(3-chloro-2-fluoro-6-(1H-tetrazol-1-yl)phenyl)-5-oxo-1,2,3,5,8,8a-hexahydroindolizin-3-yl)-1H-imidazol-5-yl)-3-fluoropicolinic acid]: the IC50 in experiment [1] was determined as 0.3 nM.
For the molecule `O=C1C=C(c2c(-n3cnnn3)ccc(Cl)c2F)C[C@H]2CC[C@@H](c3ncc(-c4ccnc(CO)c4F)[nH]3)N12` [Compound of formula (I-A), (3S,8aR)-7-(3-Chloro-2-fluoro-6-(1H-tetrazol-1-yl)phenyl)-3-(5-(3-fluoro-2-(hydroxymethyl)pyridin-4-yl)-1H-imidazol-2-yl)-2,3,8,8a-tetrahydroindolizin-5(1H)-one], the “ex vivo aPTT, Fold vs baseline” value in experiment [2] (setting [3]) is listed as 1.37; in experiment [2] (setting [4]), 1.17; in experiment [2] (setting [5]), 1.24; in experiment [2] (setting [6]), 1.02; in experiment [2] (setting [7]), 1.59; in experiment [2] (setting [8]), 1.37. Further, the “ex vivo aPTT, Fold vs baseline” value is reported as 2.32 in experiment [2] (setting [9]), 2.14 in experiment [2] (setting [10]), 3.40 in experiment [2] (setting [11]) and 3.27 in experiment [2] (setting [12]). Further, the “ex vivo aPTT Onset of Clotting Time, mean” value in experiment [2] (setting [3]) was 28.00; in experiment [2] (setting [4]) it was 23.88; in experiment [2] (setting [5]), 25.40; in experiment [2] (setting [6]), 20.95; in experiment [2] (setting [7]), 32.50; in experiment [2] (setting [8]) it was 28.05. In addition, the “ex vivo aPTT Onset of Clotting Time, mean” value was found to be 47.40 in experiment [2] (setting [9]), 43.75 in experiment [2] (setting [10]), 69.6 in experiment [2] (setting [11]) and 67.00 in experiment [2] (setting [12]).

Usually IC50 stands for the concentration that inhibits the measured activity by half. A lower IC50 goes with higher potency.
